The values below are quoted from earlier work in patent US20160361270A1, “UNIFORM, HIGH BASIS WEIGHT NANOFIBER FABRICS FOR MEDICAL APPLICATIONS” (University of Washington, priority 2015, published 2016).

As a reminder, the pKa is the pH at which an ionisable group is half protonated.

Assay in series [1]: not given
The source holds these as a separate data set.

A value given as a limit tells only on which side of the number the result lay.

As to `Cc1cc(C)c(Nc2ccnc(Nc3ccc(C#N)cc3)n2)c(C)c1` [dapivirine], the water solubility was less than 1 µg/mL.

`Cc1cc(C#N)cc(C)c1Oc1nc(Nc2ccc(C#N)cc2)nc(N)c1Br` [etravirine]: the water solubility is less than 100 µg/mL.

Regarding `Cc1nnc(C(=O)NC(C)(C)c2nc(C(=O)NCc3ccc(F)cc3)c(O)c(=O)n2C)o1` [raltegravir], in series [1], the pKa is on record as 7.

For `C[C@H](Cn1cnc2c(N)ncnc21)OCP(=O)(O)O` [tenofovir], the water solubility was more than 1000 µg/mL.
